Where a SMILES comes first, the peptide text is derived from it. Bridges are numbered along the chain shown (N, C = ends). [ ]: non-standard residue; d: D form. ξ: configuration not given here. Bip = N[C@@H](Cc1ccc(-c2ccccc2)cc1)C(=O)O; Cit = NC(=O)NCCC[C@H](N)C(=O)O; Ile(3ξ) = CCC(C)[C@H](N)C(=O)O; ξIle = CC[C@H](C)C(N)C(=O)O; Orn = NCCC[C@H](N)C(=O)O; Dab = NCC[C@H](N)C(=O)O; Dap = NC[C@H](N)C(=O)O
molecular target: T1, human PD-1 / PD-L1-Ig binding on Jurkat cell line over-expressing human PD-1 (Jurkat-PD-1) (Homo sapiens, UniProt Q15116); assay: Jurkat-PD-1 Cell Binding High-Content Screening Assay (CBA); assay type: cell-based; settings: Jurkat HPD1_PDL1 IC50, Jurkat-PD-1 cells, PE-labeled PD-L1-Ig 20 nM final
T1 construct: expressed in transfected cells; host or cells: Jurkat
Outline: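 Cell-bound PE-labeled PD-L1-Ig (20 nM final, 1 h) measured by high-content imaging after fixation and Hoechst 33342 counterstain. Compound was applied first for 2 h at 37° C. to Jurkat cells over-expressing human PD-1 in DMEM with 10% FCS.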

T1 sequence (Q15116 25-288): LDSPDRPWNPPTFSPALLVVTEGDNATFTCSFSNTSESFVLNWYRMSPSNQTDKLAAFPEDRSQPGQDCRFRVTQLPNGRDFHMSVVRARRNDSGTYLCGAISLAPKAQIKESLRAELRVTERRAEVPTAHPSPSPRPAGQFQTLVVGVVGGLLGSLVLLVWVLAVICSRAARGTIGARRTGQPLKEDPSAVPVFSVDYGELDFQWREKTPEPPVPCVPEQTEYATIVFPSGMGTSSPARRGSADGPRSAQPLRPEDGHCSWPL

Row | SMILES | IC50 [nM]
1 | CC(C)C[C@@H]1NC(=O)[C@H](Cc2c[nH]c3ccccc23)NC(=O)[C@H](CC(=O)O)NC(=O)[C@H](Cc2ccc(O)cc2)NC(=O)[C@H](Cc2ccccc2)NC(=O)CSC[C@@H](C(=O)NCC(N)=O)NC(=O)[C@H]([C@@H](C)O)NC(=O)[C@H](C(C)C)NC(=O)[C@H](CC(C)C)NC(=O)[C@H](CC(N)=O)NC(=O)[C@@H](C)NC(=O)[C@H](CCN)NC(=O)[C@H](C(C)C)NC(=O)[C@H](Cc2ccc(-c3ccccc3)cc2)NC1=O [Compound 1099] ({CH2CO}-FYDWL[Bip]V[Dab][dA]NLVTCG-NH2; thioether N-14) | 84.5

same assay, conditions: Jurkat-PD-1 cells, PE-labeled PD-L1-Ig 20 nM final; read-out: Jurkat HPD1_PDL1 IC50

Row | SMILES | IC50 [nM]
2 | CC(C)C[C@@H]1NC(=O)[C@H](CCN)NC(=O)[C@@H](CC(C)C)NC(=O)[C@H](CCCN)NC(=O)[C@H](C(C)C)NC(=O)[C@H](Cc2ccc(-c3ccccc3)cc2)NC(=O)[C@H](C(C)C)NC(=O)[C@H](Cc2c[nH]c3ccccc23)NC(=O)[C@H](CC(N)=O)NC(=O)[C@H](Cc2ccc(O)cc2)NC(=O)[C@H](CC(N)=O)NC(=O)CSC[C@@H](C(=O)NCC(N)=O)NC(=O)[C@H]([C@@H](C)O)NC(=O)[C@H](C(C)C)NC1=O [Compound 1084] ({CH2CO}-NYNWV[Bip]V[Orn][dL][Dab]LVTCG-NH2; thioether N-14) | 28.9
3 | CC(C)C[C@@H]1NC(=O)[C@H](CCN)NC(=O)[C@@H](CC(C)C)NC(=O)[C@H](CCCCN)NC(=O)[C@H](C(C)C)NC(=O)[C@H](Cc2ccc(-c3ccccc3)cc2)NC(=O)[C@H](C(C)C)NC(=O)[C@H](Cc2c[nH]c3ccccc23)NC(=O)[C@H](CC(N)=O)NC(=O)[C@H](Cc2ccc(O)cc2)NC(=O)[C@H](CC(N)=O)NC(=O)CSC[C@@H](C(=O)NCC(N)=O)NC(=O)[C@H]([C@@H](C)O)NC(=O)[C@H](C(C)C)NC1=O [Compound 1085] ({CH2CO}-NYNWV[Bip]VK[dL][Dab]LVTCG-NH2; thioether N-14) | 22.3
4 | CC(C)C[C@@H]1NC(=O)[C@H](CCN)NC(=O)[C@@H](CC(C)C)NC(=O)[C@H](CCN)NC(=O)[C@H](C(C)C)NC(=O)[C@H](Cc2ccc(-c3ccccc3)cc2)NC(=O)[C@H](C(C)C)NC(=O)[C@H](Cc2c[nH]c3ccccc23)NC(=O)[C@H](CC(N)=O)NC(=O)[C@H](Cc2ccc(O)cc2)NC(=O)[C@H](CC(N)=O)NC(=O)CSC[C@@H](C(=O)NCC(N)=O)NC(=O)[C@H]([C@@H](C)O)NC(=O)[C@H](C(C)C)NC1=O [Compound 1086] ({CH2CO}-NYNWV[Bip]V[Dab][dL][Dab]LVTCG-NH2; thioether N-14) | 20.5
5 | CC(C)C[C@@H]1NC(=O)[C@H](CCN)NC(=O)[C@@H](CC(C)C)NC(=O)[C@H](CCCN)NC(=O)[C@H](C(C)C)NC(=O)[C@H](Cc2ccc(-c3ccccc3)cc2)NC(=O)[C@H](C(C)C)NC(=O)[C@H](Cc2c[nH]c3ccccc23)NC(=O)[C@H](CC(N)=O)NC(=O)[C@H](Cc2ccc(O)cc2)NC(=O)[C@H](CN)NC(=O)CSC[C@@H](C(=O)N[C@@H](C)C(N)=O)NC(=O)[C@H]([C@@H](C)O)NC(=O)[C@H](C(C)C)NC1=O [Compound 1087] ({CH2CO}-[Dap]YNWV[Bip]V[Orn][dL][Dab]LVTCA-NH2; thioether N-14) | 36.6
6 | CC(C)C[C@@H]1NC(=O)[C@H](CCN)NC(=O)[C@@H](CC(C)C)NC(=O)[C@H](CCCN)NC(=O)[C@H](CCCNC(N)=O)NC(=O)[C@H](Cc2ccc(-c3ccccc3)cc2)NC(=O)[C@H](C(C)C)NC(=O)[C@H](Cc2c[nH]c3ccccc23)NC(=O)[C@H](CC(N)=O)NC(=O)[C@H](Cc2ccc(O)cc2)NC(=O)[C@H](CN)NC(=O)CSC[C@@H](C(=O)N[C@@H](C)C(N)=O)NC(=O)[C@H]([C@@H](C)O)NC(=O)[C@H](C(C)C)NC1=O [Compound 1088] ({CH2CO}-[Dap]YNWV[Bip][Cit][Orn][dL][Dab]LVTCA-NH2; thioether N-14) | 23.7
7 | CC[C@H](C)C1NC(=O)[C@H](Cc2ccc(-c3ccccc3)cc2)NC(=O)[C@H](C(C)C)NC(=O)[C@H](Cc2c[nH]c3ccccc23)NC(=O)[C@H](CC(N)=O)NC(=O)[C@H](Cc2ccc(O)cc2)NC(=O)[C@H](CN)NC(=O)CSC[C@@H](C(=O)N[C@@H](C)C(N)=O)NC(=O)[C@H]([C@@H](C)O)NC(=O)[C@H](C(C)C)NC(=O)[C@H](CC(C)C)NC(=O)[C@H](CCN)NC(=O)[C@@H](CC(C)C)NC(=O)[C@H](CN)NC1=O (stereo partly drawn) [Compound 1089] ({CH2CO}-[Dap]YNWV[Bip][ξIle][Dap][dL][Dab]LVTCA-NH2; thioether N-14) | 26.7
8 | CC[C@H](C)C1NC(=O)[C@H](Cc2ccc(-c3ccccc3)cc2)NC(=O)[C@H](C(C)C)NC(=O)[C@H](Cc2c[nH]c3ccccc23)NC(=O)[C@H](CC(N)=O)NC(=O)[C@H](Cc2ccc(O)cc2)NC(=O)[C@H](CN)NC(=O)CSC[C@@H](C(=O)N[C@@H](C)C(N)=O)NC(=O)[C@H]([C@@H](C)O)NC(=O)[C@H](C(C)C)NC(=O)[C@H](CC(C)C)NC(=O)[C@H](CCN)NC(=O)[C@@H](CC(C)C)NC(=O)[C@H](CCN)NC1=O (stereo partly drawn) [Compound 1090] ({CH2CO}-[Dap]YNWV[Bip][ξIle][Dab][dL][Dab]LVTCA-NH2; thioether N-14) | 28
9 | CCC(C)[C@@H]1NC(=O)[C@H](Cc2ccc(-c3ccccc3)cc2)NC(=O)[C@H](C(C)C)NC(=O)[C@H](Cc2c[nH]c3ccccc23)NC(=O)[C@H](CC(N)=O)NC(=O)[C@H](Cc2ccc(O)cc2)NC(=O)[C@H](CN)NC(=O)CSC[C@@H](C(=O)N[C@@H](C)C(N)=O)NC(=O)[C@H]([C@@H](C)O)NC(=O)[C@H](C(C)C)NC(=O)[C@H](CC(C)C)NC(=O)[C@H](CCN)NC(=O)[C@@H](CC(C)C)NC(=O)[C@H](CCCCN)NC1=O (stereo partly drawn) [Compound 1091] ({CH2CO}-[Dap]YNWV[Bip][Ile(3ξ)]K[dL][Dab]LVTCA-NH2; thioether N-14) | 21.8
10 | CC(C)C[C@@H]1NC(=O)[C@H](Cc2c[nH]c3ccccc23)NC(=O)[C@H](CC(=O)O)NC(=O)[C@H](Cc2ccc(O)cc2)NC(=O)[C@H](Cc2ccccc2)NC(=O)CSC[C@@H](C(=O)N[C@@H](C)C(N)=O)NC(=O)[C@H]([C@@H](C)O)NC(=O)[C@H](C(C)C)NC(=O)[C@H](CC(C)C)NC(=O)[C@H](CC(N)=O)NC(=O)[C@@H](C)NC(=O)[C@H](CCCN)NC(=O)[C@H](C(C)C)NC(=O)[C@H](Cc2ccc(-c3ccccc3)cc2)NC1=O [Compound 1092] ({CH2CO}-FYDWL[Bip]V[Orn][dA]NLVTCA-NH2; thioether N-14) | 229
11 | CC(C)C[C@@H]1NC(=O)[C@H](Cc2c[nH]c3ccccc23)NC(=O)[C@H](CC(=O)O)NC(=O)[C@H](Cc2ccc(O)cc2)NC(=O)[C@H](Cc2ccccc2)NC(=O)CSC[C@@H](C(=O)NCC(N)=O)NC(=O)[C@H](CO)NC(=O)[C@H](C(C)C)NC(=O)[C@H](CC(C)C)NC(=O)[C@H](CC(N)=O)NC(=O)[C@@H](C)NC(=O)[C@H](CCCN)NC(=O)[C@H](C(C)C)NC(=O)[C@H](Cc2ccc(-c3ccccc3)cc2)NC1=O [Compound 1093] ({CH2CO}-FYDWL[Bip]V[Orn][dA]NLVSCG-NH2; thioether N-14) | 120
12 | CC(C)C[C@@H]1NC(=O)[C@H](Cc2c[nH]c3ccccc23)NC(=O)[C@H](CC(=O)O)NC(=O)[C@H](Cc2ccc(O)cc2)NC(=O)[C@H](Cc2ccccc2)NC(=O)CSC[C@@H](C(=O)N[C@@H](C)C(N)=O)NC(=O)[C@H](CO)NC(=O)[C@H](C(C)C)NC(=O)[C@H](CC(C)C)NC(=O)[C@H](CCN)NC(=O)[C@@H](C)NC(=O)[C@H](CCCN)NC(=O)[C@H](C(C)C)NC(=O)[C@H](Cc2ccc(-c3ccccc3)cc2)NC1=O [Compound 1095] ({CH2CO}-FYDWL[Bip]V[Orn][dA][Dab]LVSCA-NH2; thioether N-14) | 146
13 | CC(C)C[C@@H]1NC(=O)[C@H](Cc2c[nH]c3ccccc23)NC(=O)[C@H](CC(=O)O)NC(=O)[C@H](Cc2ccc(O)cc2)NC(=O)[C@H](Cc2ccccc2)NC(=O)CSC[C@@H](C(=O)NCC(N)=O)NC(=O)[C@H](CO)NC(=O)[C@H](C(C)C)NC(=O)[C@H](CC(C)C)NC(=O)[C@H](CCN)NC(=O)[C@@H](C)NC(=O)[C@H](CCCN)NC(=O)[C@H](C(C)C)NC(=O)[C@H](Cc2ccc(-c3ccccc3)cc2)NC1=O [Compound 1096] ({CH2CO}-FYDWL[Bip]V[Orn][dA][Dab]LVSCG-NH2; thioether N-14) | 68.8
14 | CC(C)C[C@@H]1NC(=O)[C@H](Cc2c[nH]c3ccccc23)NC(=O)[C@H](CC(=O)O)NC(=O)[C@H](Cc2ccc(O)cc2)NC(=O)[C@H](Cc2ccccc2)NC(=O)CSC[C@@H](C(=O)N[C@@H](C)C(N)=O)NC(=O)[C@H]([C@@H](C)O)NC(=O)[C@H](C(C)C)NC(=O)[C@H](CC(C)C)NC(=O)[C@H](CCN)NC(=O)[C@@H](C)NC(=O)[C@H](CN)NC(=O)[C@H](C(C)C)NC(=O)[C@H](Cc2ccc(-c3ccccc3)cc2)NC1=O [Compound 1097] ({CH2CO}-FYDWL[Bip]V[Dap][dA][Dab]LVTCA-NH2; thioether N-14) | 132
15 | CC(C)C[C@@H]1NC(=O)[C@H](Cc2c[nH]c3ccccc23)NC(=O)[C@H](CC(=O)O)NC(=O)[C@H](Cc2ccc(O)cc2)NC(=O)[C@H](Cc2ccccc2)NC(=O)CSC[C@@H](C(=O)NCC(N)=O)NC(=O)[C@H](CO)NC(=O)[C@H](C(C)C)NC(=O)[C@H](CC(C)C)NC(=O)[C@H](CCN)NC(=O)[C@@H](C)NC(=O)[C@H](CN)NC(=O)[C@H](C(C)C)NC(=O)[C@H](Cc2ccc(-c3ccccc3)cc2)NC1=O [Compound 1098] ({CH2CO}-FYDWL[Bip]V[Dap][dA][Dab]LVSCG-NH2; thioether N-14) | 115
16 | CC(C)C[C@@H]1NC(=O)[C@H](Cc2c[nH]c3ccccc23)NC(=O)[C@H](CC(=O)O)NC(=O)[C@H](Cc2ccc(O)cc2)NC(=O)[C@H](Cc2ccccc2)NC(=O)CSC[C@@H](C(=O)N[C@@H](C)C(N)=O)NC(=O)[C@H](CO)NC(=O)[C@H](C(C)C)NC(=O)[C@H](CC(C)C)NC(=O)[C@H](CC(N)=O)NC(=O)[C@@H](C)NC(=O)[C@H](CCN)NC(=O)[C@H](C(C)C)NC(=O)[C@H](Cc2ccc(-c3ccccc3)cc2)NC1=O [Compound 1100] ({CH2CO}-FYDWL[Bip]V[Dab][dA]NLVSCA-NH2; thioether N-14) | 41.4

— US20250163104A1, “MACROCYCLIC IMMUNOMODULATORS” (priority 2021, published 2025)
